Experimental data taken from the supplement of paper PMC11208160.

Test: recombinant UMI read abundance after kanamycin selection (control-corrected) (log10(CPM+1)); higher = more efficient recombination; extreme values may be limits of the assay; sequences stand for … in AGTGCAGAGAAAATCGGCCAGTTTTCTCTGCCTGCAGTCCGCATGCCGTGGGACCCCTTGGGTTCTAACCTGTTGCCTAGATTTATGCAGCGGACTGCCTTTCTCCCAAAGTGATAAACCGG…AGGTTGGTTTCACT; site = the 11-nt donor
Procedure, shortened: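 Two replicates each of selected and unselected plating were used in this pooled Escherichia coli screen of donor and donor-binding-loop pairs for the IS621 bridge recombinase. Selection was with IPTG (0.07 mM) and kanamycin. Counts of recombinant UMIs, amplified across the donor–target junction, were converted to CPM, averaged, scaled by control-derived factors and reported as log10(CPM+1).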
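Also: IS621 bridge recombinase in Escherichia coli cells against a fixed T5 target plasmid.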

| Sequence | recombinant UMI read abundance (log10) |
| --- | --- |
| CAGGGCCCATGGACCGGTTTTCCCGGTAATCCGTATTTGTT (site CATGGCCCTAA) | 0.00426 |
| ATCTATACATGGACCGGTTTTCCCGGTAATCCGTATTTGAC (site ATCGATACTGT) | 0 |
| CGGTAACCATGGACCGGTTTTCCCGGTAATCCGTATTTGAT (site CGGGAACCTAT) | 0 |
| CACACCTCATGGACCGGTTTTCCCGGTAATCCGTATTTGCC (site CACGCCTCTGG) | 0 |
| TAGGAAGCATGGACCGGTTTTCCCGGTAATCCGTATTTGCG (site TAGGAACCTCG) | 0.00974 |
| CCAGGGCCATGGACCGGTTTTCCCGGTAATCCGTATTTGTG (site CCAGGGCCTCA) | 0.00753 |
| TCTTATCCATGGACCGGTTTTCCCGGTAATCCGTATTTGGA (site TCTTATCCTTC) | 0.0232 |
| CCATTATCATGGACCGGTTTTCCCGGTAATCCGTATTTGCA (site CCATTATCTTG) | 0.785 |
| TTAGCAGCATGGACCGGTTTTCCCGGTAATCCGTATTTGTG (site TTAGCTGCTCA) | 0.00315 |
| ATACGGCCATGGACCGGTTTTCCCGGTAATCCGTATTTGAC (site ATAGGGCCTGT) | 0 |
| CACGTATCATGGACCGGTTTTCCCGGTAATCCGTATTTGAC (site CTAGTATCTGT) | 1.1 |
| CTGGGAACATGGACCGGTTTTCCCGGTAATCCGTATTTGCA (site CTGGAAACTTG) | 1.87 |
| TACAGTCCATGGACCGGTTTTCCCGGTAATCCGTATTTGTA (site TAGAGTCCTTA) | 0.198 |
| ACCCATCCATGGACCGGTTTTCCCGGTAATCCGTATTTGAC (site ACACATCCTGT) | 0.0114 |
| GAGCGCACATGGACCGGTTTTCCCGGTAATCCGTATTTGAT (site GAGCGCACTAT) | 1.73 |
| CAACTCACATGGACCGGTTTTCCCGGTAATCCGTATTTGGG (site CAATTCACTCC) | 0.013 |
| CGTGGAACATGGACCGGTTTTCCCGGTAATCCGTATTTGTT (site CGTGGAACTCA) | 0.251 |
| CAATGCTCATGGACCGGTTTTCCCGGTAATCCGTATTTGAT (site CAATGCTCTTT) | 0.993 |
| CTCTACACATGGACCGGTTTTCCCGGTAATCCGTATTTGGT (site CTCTACACTAA) | 0.0359 |
| CGGTTATCATGGACCGGTTTTCCCGGTAATCCGTATTTGCT (site CGGTTATCTAG) | 2.65 |
| TACCCATCATGGACCGGTTTTCCCGGTAATCCGTATTTGAG (site TACCCATCTCT) | 0.374 |
| CTAGTATCATGGACCGGTTTTCCCGGTAATCCGTATTTGAC (site CTAGTACCTAT) | 0.00604 |
| AGAGCGACATGGACCGGTTTTCCCGGTAATCCGTATTTGTG (site AGAGCGACTCA) | 1.49 |
| CTAGTCTCATGGACCGGTTTTCCCGGTAATCCGTATTTGAC (site CTAGTGTCTGT) | 0 |
| ATCAGGCCATGGACCGGTTTTCCCGGTAATCCGTATTTGAC (site ATAAGGCCTGT) | 0 |

| Sequence | recombinant UMI read abundance (log10) |
| --- | --- |
| GCGAAACCATGGACCGGTTTTCCCGGTAATCCGTATTTGTG (site GCGAAACCTCA) | 0 |
| CTGTAGTCATGGACCGGTTTTCCCGGTAATCCGTATTTGTC (site CTGTAGTCTGA) | 3.24 |
| GTTGTTCCATGGACCGGTTTTCCCGGTAATCCGTATTTGGT (site GTTGTTGCTAC) | 0.0845 |
| GTGGAGGCATGGACCGGTTTTCCCGGTAATCCGTATTTGTC (site GTGGAGGCTCA) | 0.549 |
| GTGGATGCATGGACCGGTTTTCCCGGTAATCCGTATTTGTG (site GTGGACGCTCA) | 0.837 |
| AGGAAGTCATGGACCGGTTTTCCCGGTAATCCGTATTTGCA (site AGGAAGACTTG) | 0.839 |
| ACGAAGCCATGGACCGGTTTTCCCGGTAATCCGTATTTGGG (site CCGAAGCCTCC) | 0.00571 |
| AGGACTTCATGGACCGGTTTTCCCGGTAATCCGTATTTGAC (site AGGACTCCTGT) | 0.509 |
| GTTGTTCCATGGACCGGTTTTCCCGGTAATCCGTATTTGGT (site GTTGTTCCTAT) | 0.00563 |
| TCAACCCCATGGACCGGTTTTCCCGGTAATCCGTATTTGGT (site TCAACCCCTAC) | 0 |
| CCTAGCACATGGACCGGTTTTCCCGGTAATCCGTATTTGGT (site CCTAGCACTAC) | 0.00677 |
| CACCACACATGGACCGGTTTTCCCGGTAATCCGTATTTGTA (site CACCACACTTA) | 2.13 |
| ATAAGCCCATGGACCGGTTTTCCCGGTAATCCGTATTTGAC (site ATAAGGCCTGT) | 0.528 |
| CACTCGACATGGACCGGTTTTCCCGGTAATCCGTATTTGTG (site CACTCGACTCA) | 0.319 |
| CTTTTATCATGGACCGGTTTTCCCGGTAATCCGTATTTGAC (site CTAGTATCTGT) | 0.225 |
| TACCGTCCATGGACCGGTTTTCCCGGTAATCCGTATTTGAT (site CACCGTCCTAT) | 0.00852 |
| CACGGCCCATGGACCGGTTTTCCCGGTAATCCGTATTTGTT (site CACGGTCCTAA) | 0.311 |
| CGTTGTGCATGGACCGGTTTTCCCGGTAATCCGTATTTGAG (site CGTTGTGCTCT) | 1.77 |
| AATTTACCATGGACCGGTTTTCCCGGTAATCCGTATTTGGC (site AATTTACCTGC) | 0 |
| TCCAATTCATGGACCGGTTTTCCCGGTAATCCGTATTTGCT (site TCCAATTCTCG) | 0 |
| CTGGAAACATGGACCGGTTTTCCCGGTAATCCGTATTTGCG (site CTGGAAACTGG) | 0 |
| AATGAGTCATGGACCGGTTTTCCCGGTAATCCGTATTTGAC (site AATGCGTCTGT) | 0 |
| CGGATGGCATGGACCGGTTTTCCCGGTAATCCGTATTTGAA (site CGGATGGCTTT) | 2.15 |
| CAGTCCACATGGACCGGTTTTCCCGGTAATCCGTATTTGGG (site CAGTCCACTCC) | 0.00714 |
| CTCATCGCATGGACCGGTTTTCCCGGTAATCCGTATTTGCC (site CTCATCGCTGG) | 0.346 |

| Sequence | recombinant UMI read abundance (log10) |
| --- | --- |
| ATCCATGCATGGACCGGTTTTCCCGGTAATCCGTATTTGAG (site ATCCATGCTCT) | 1.05 |
| GATAAATCATGGACCGGTTTTCCCGGTAATCCGTATTTGAC (site GATAAATCTGT) | 1.03 |
| GGGAGTCCATGGACCGGTTTTCCCGGTAATCCGTATTTGTT (site CGGAATCCTAA) | 0.00442 |
| CCTAATACATGGACCGGTTTTCCCGGTAATCCGTATTTGGC (site CTTAATACTGC) | 0 |
| CTGGGAACATGGACCGGTTTTCCCGGTAATCCGTATTTGCA (site CTGGGAACTTG) | 2.39 |
| ATTGAGACATGGACCGGTTTTCCCGGTAATCCGTATTTGGT (site ATTGAGACTCC) | 0.379 |
| GAAGATTCATGGACCGGTTTTCCCGGTAATCCGTATTTGGT (site GAAGATTCTAT) | 1.82 |
| CAGAACCCATGGACCGGTTTTCCCGGTAATCCGTATTTGCC (site CAGAACCCTGG) | 0 |
| GGAACTTCATGGACCGGTTTTCCCGGTAATCCGTATTTGGC (site GGAACTTCTGC) | 1.94 |
| TCGCCTTCATGGACCGGTTTTCCCGGTAATCCGTATTTGGT (site TGGCCTTCTAC) | 0.00543 |
| GTTAGCACATGGACCGGTTTTCCCGGTAATCCGTATTTGGC (site GTTAGTACTGC) | 0 |
| TTAGGTGCATGGACCGGTTTTCCCGGTAATCCGTATTTGTG (site TTAGTTGCTCA) | 0.0384 |
| CCCGGTCCATGGACCGGTTTTCCCGGTAATCCGTATTTGGA (site CCCGGTCCTTG) | 0 |
| CGATCATCATGGACCGGTTTTCCCGGTAATCCGTATTTGGT (site CGATCATCTAT) | 1.08 |
| CACTGCTCATGGACCGGTTTTCCCGGTAATCCGTATTTGCC (site CACTTCTCTGG) | 0 |
| ATTGATACATGGACCGGTTTTCCCGGTAATCCGTATTTGGT (site ATTGATACTAC) | 1.33 |
| GGGGCGCCATGGACCGGTTTTCCCGGTAATCCGTATTTGCA (site GGGGCGCCTTG) | 0.0101 |
| GCAAACGCATGGACCGGTTTTCCCGGTAATCCGTATTTGTG (site GCAAACGCTCA) | 1.98 |
| AGAAAGGCATGGACCGGTTTTCCCGGTAATCCGTATTTGGT (site AGAAAGGCTAT) | 0.986 |
| CTGGAATCATGGACCGGTTTTCCCGGTAATCCGTATTTGCA (site CTGGAAACTTG) | 1.56 |
| GAATGAGCATGGACCGGTTTTCCCGGTAATCCGTATTTGGG (site GAATGAGCTCC) | 0.261 |
| CCGTAGCCATGGACCGGTTTTCCCGGTAATCCGTATTTGCC (site CCGTAGCCTGG) | 0 |
| GCTTGGCCATGGACCGGTTTTCCCGGTAATCCGTATTTGAT (site GCTTGGCCTAT) | 0 |
| CGGGAACCATGGACCGGTTTTCCCGGTAATCCGTATTTGAT (site CTGGAACCTAT) | 0 |
| CACTTGGCATGGACCGGTTTTCCCGGTAATCCGTATTTGAA (site CACTTGGCTTG) | 1.05 |
